Assay results reported in article PMC10367051, “Comprehensive Mechanistic View of the Hydrolysis of Oxadiazole-Based Inhibitors by Histone Deacetylase 6 (HDAC6)” (ACS Chemical Biology, 2023).

What was measured:
HDAC10 = target: T1, HDAC10 (Homo sapiens, UniProt Q969S8); test: HDAC10 inhibition assay (HPLC readout); type: biochemical; details: purified human protein, fluorescein-labeled N8-acetylspermidine substrate, 15 min preincubation
T1 construct: made in house; host or cells: HEK293/T17
T1 sequence (Q969S8 1-669): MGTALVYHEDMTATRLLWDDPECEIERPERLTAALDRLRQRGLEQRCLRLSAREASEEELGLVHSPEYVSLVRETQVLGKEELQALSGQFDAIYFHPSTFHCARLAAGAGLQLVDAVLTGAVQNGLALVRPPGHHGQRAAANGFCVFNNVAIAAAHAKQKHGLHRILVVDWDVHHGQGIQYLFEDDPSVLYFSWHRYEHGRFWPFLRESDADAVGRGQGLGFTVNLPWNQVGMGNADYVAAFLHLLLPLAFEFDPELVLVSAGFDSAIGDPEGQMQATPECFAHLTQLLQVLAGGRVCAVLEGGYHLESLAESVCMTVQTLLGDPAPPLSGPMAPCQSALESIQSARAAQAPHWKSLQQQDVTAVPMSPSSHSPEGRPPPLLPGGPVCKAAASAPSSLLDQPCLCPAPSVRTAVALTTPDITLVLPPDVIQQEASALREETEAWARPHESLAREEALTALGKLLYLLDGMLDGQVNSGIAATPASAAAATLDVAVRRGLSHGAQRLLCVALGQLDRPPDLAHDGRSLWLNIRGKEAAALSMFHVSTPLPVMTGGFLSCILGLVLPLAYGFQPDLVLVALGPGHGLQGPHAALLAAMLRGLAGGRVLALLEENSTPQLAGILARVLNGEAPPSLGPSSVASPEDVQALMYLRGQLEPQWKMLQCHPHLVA
Description: Large-scale expression of recombinant human HDACs was carried out as described previously.[32],[37] Briefly, HEK293/T17 cells were transiently transfected with expression pMM222 plasmids comprising N-terminally tagged (TwinStrep-FLAG-HALO tag; Figure S1) HDAC genes using linear poly(ethyleneimine) (PEI, Polysciences Inc.). Cells were harvested three days post-transfection, and cell pellets were resuspended in the lysis buffer (100 mM Tris-HCl, 10 mM NaCl, 5 mM KCl, 2 mM MgCl2, and 10% glycerol at pH 8.0). Cells were disrupted by sonication, cell lysates were cleared by centrifugation, and soluble fusion proteins were first purified by Streptactin affinity chromatography (IBA). For all HDACs but HDACs 1, 10, and 11, the N-terminal tag was cleaved off overnight by the addition of TEV protease (10:1 HDAC/TEV ratio). […]
Optimized fluorometric assays were used to determine inhibition constants of studied compounds against individual HDAC isoforms as described previously.[32] […] Deacetylation reactions were monitored either by high-performance liquid chromatography (HPLC) (HDAC10) or by quantification of released AMC (λex/λem = 365/440 nm) using a CLARIOstar plate reader (BMG Labtech GmbH).

[1] = Control reaction without the enzyme (assay buffer, LC-MS/MS); type: physicochemical; details: 20 μM 8, assay buffer pH 7.4, 30 °C
Description: Mass spectrometry quantification of inhibitors/reaction products was carried out with a Shimadzu LCMS-8040 instrument (Shimadzu, HPLC Prominence system). Analytes were separated on a Kinetex XB-C18 2.6 μm, 100 Å column (50 × 2.1 mm; Phenomenex) in a linear 15–60% CH3CN/H2O gradient containing 0.1% formic acid at a flow rate of 0.8 mL min^–1 over 4 min. Multiple reaction monitoring (MRM) parameters were optimized for each analyte, and corresponding major CID fragments were used for quantification. Analytes were quantified using corresponding calibration curves generated from pure compounds dissolved in water.
Twenty micromolar solutions of compounds were mixed with 1 μM zHDAC6 in a 96-well plate in an assay buffer comprising 50 mM HEPES, 140 mM NaCl, and 10 mM KCl at pH 7.4. […] Four microliter aliquots of reaction mixtures were injected into the system directly from the 96-well plate, and inhibitors/reaction products were quantitated as described above.

Structure (SMILES)	IC50 (HDAC10) [µM]	hydrolysis in the control reaction without the enzyme [1]
CS(=O)(=O)N(Cc1ccc(-c2nnc(C(F)F)o2)cn1)c1cccc(Cl)c1 [compound 8]	> 20	no hydrolysis was observed
CS(=O)(=O)N(Cc1ccc(-c2nnc(C(F)(F)F)o2)cn1)c1cccc(Cl)c1 [compound 7]	> 20	
